Measured values published in patent publication US8841508B2, “Non-human mammalian animal model for type 2 diabetes” (National University Corporation, priority 2009, dated 2014).

Assays:
[1] = system: KO mice (Cdkal1 knock-out mice, type 2 diabetes model); assay: Screening simulation: fasting and glucose-tolerance blood glucose level after Exendin-4 in KO mice; assay type: in vivo, mouse; conditions: intraperitoneal, 0.1 mg per kg twice a day, after 1 week and 2 weeks, ANOVA p=0.02
Experimental: (§1) To the KO mice used for the verification of periodical changes of blood glucose level, Exendin-4 which is an agonist of a glucagon-like peptide-1 receptor known as a therapeutic agent for type 2 diabetes was intraperitoneally administrated as a test substance. A degree of type 2 diabetes was then evaluated using the KO mice to simulate the screening of the preventive or therapeutic agent for type 2 diabetes caused by the Cdkal1 abnormality.
(§2) The procedures for evaluating the degree of type 2 diabetes consists of measuring the fasting blood glucose level and glucose-tolerance blood glucose level for KO mice and WT mice, comparing the blood glucose levels for both of the mice, and evaluating them. In this test, Exendin-4 was administered twice a day for 2 weeks at a rate of 0.1 mg per kg, of body weight.

[2] = system: WT mice (wild type mice); assay: Screening simulation: fasting and glucose-tolerance blood glucose level after Exendin-4 in WT mice; assay type: in vivo, mouse; conditions: intraperitoneal, 0.1 mg per kg twice a day, after 1 week and 2 weeks, ANOVA p=0.02
Experimental: as §1, §2

Exendin-4
glucose tolerance (blood glucose level after glucose tolerance) [1]: significantly improved glucose tolerance | glucose tolerance (blood glucose level after glucose tolerance) [2]: significantly improved glucose tolerance
